The OPERA property sets (Mansouri et al. 2018)

Settings: not given

Structure (SMILES) | boiling point | melting point | log10 vapour pressure (mmHg) | ready biodegradability | log10 Henry constant (atm·m³/mol) | log10 Koc (L/kg) | log10 biodegradation half-life (days)
C=C(C)c1ccc(C(C)C)cc1 | 221 °C | -30.6 °C | – | – | – | – | –
OC1c2ccccc2-c2ccccc21 | – | 154 °C | – | – | – | – | –
Oc1ccc(Cl)cc1Sc1cc(Cl)ccc1O | – | 174 °C | – | – | – | – | –
CCCCCCCC/C=C\CCCCCCCC(=O)O | 360 °C | – | -5.85 | readily biodegradable | – | – | –
Clc1cc(Cl)c(-c2c(Cl)c(Cl)cc(Cl)c2Cl)c(Cl)c1Cl | – | – | – | – | -4.77 | – | –
CCOCCOC(=O)c1ccccc1C(=O)OCCOCC | 345 °C | 34 °C | – | – | – | – | –
Cc1cccc(C)c1NC(=O)CN(CC(=O)O)CC(=O)O | – | 202 °C | – | – | – | – | –
COc1cc(CC#N)ccc1O | – | 56.5 °C | – | – | – | – | –
CCC(=O)F | 44 °C | – | – | – | – | – | –
CCC(c1ccccc1)c1c(O)c2ccccc2oc1=O (stereo not drawn) | – | 180 °C | – | – | – | – | –
BrC(Br)C(Br)Br | 244 °C | 0 °C | -1.7 | not readily biodegradable | – | – | –
FC(F)(F)C(F)(F)C(F)(F)C(F)(F)C(F)(F)C(F)(F)C(F)(F)C(F)(F)C(F)(F)C(F)(F)C(F)(F)C(F)(F)C(F)(F)C(F)(F)C(F)(F)C(F)(F)C(F)(F)C(F)(F)C(F)(F)C(F)(F)C(F)(F)C(F)(F)C(F)(F)C(F)(F)F | – | 189 °C | – | – | – | – | –
CCOC(Cl)CCl (stereo not drawn) | 145 °C | – | – | – | – | – | –
CC(=O)Nc1ccc(F)cc1 | – | 154 °C | – | – | – | 1.48 | –
NC(=O)CBr | – | 89 °C | – | – | – | – | –
N#Cc1ccc(Br)cc1 | 236 °C | – | – | – | – | – | –
CCCCB(O)O | – | 95 °C | – | – | – | – | –
C[C@H](N[C@H](CCc1ccccc1)C(=O)O)C(=O)N1CCC[C@H]1C(=O)O | – | 150 °C | – | – | – | – | –
Cc1cc(O)c(C(C)C)cc1Cl | 258 °C | 63 °C | – | – | – | – | –

Structure (SMILES) | boiling point | melting point | log10 vapour pressure (mmHg) | ready biodegradability | log10 Henry constant (atm·m³/mol) | log10 Koc (L/kg) | log10 biodegradation half-life (days)
COc1c(Cl)cc(Cl)cc1Cl | 241 °C | 61.5 °C | – | – | – | – | –
CCOP(=S)(Oc1ccc(Cl)cc1Cl)c1ccccc1 (stereo not drawn) | – | – | – | not readily biodegradable | – | – | –
CCCCCCCCCCCCOP(=O)(O)O | – | – | – | readily biodegradable | – | – | –
CC(C)(C)CC(C)(C)N | 140 °C | – | – | – | – | – | –
CCCN(CCC)C(=O)SCc1ccccc1 | – | – | -6.29 | – | – | – | –
CCOP(=O)(OCC)SCCSCC | – | – | – | – | – | 1.85 | –
CC(=O)COC(C)=O | 171 °C | – | – | – | – | – | –
Oc1ccc2[nH]ccc2c1 | – | 108 °C | – | – | – | – | –
COC(=O)CC(C)=O | 172 °C | – | -0.0496 | readily biodegradable | – | – | –
CC(C)/N=c1/cc2n(-c3ccc(Cl)cc3)c3ccccc3nc-2cc1Nc1ccc(Cl)cc1 | – | 211 °C | – | – | – | – | –
CCOC(OCC)C(Cl)Cl | 184 °C | – | – | – | – | – | –
CCCCS(=O)(=O)O | – | -15.2 °C | – | – | – | – | –
COB(OC)OC | 68 °C | -31.6 °C | 2.13 | – | – | – | –
Oc1cc(Cl)cc(Cl)c1 | 233 °C | 68 °C | -2.07 | not readily biodegradable | – | 2.83 | –
Fc1nc(F)nc(F)n1 | 72.8 °C | -38 °C | – | – | – | – | –
c1ccc2c(c1)ccc1cc3c(ccc4ccccc43)cc12 | 524 °C | 270 °C | -9.02 | not readily biodegradable | – | 6.22 | 2.62
C=C(C)CCCCC | 119 °C | -90 °C | 1.3 | – | – | – | –
COP(=O)(OC)SCn1c(=O)oc2cc(Cl)cnc21 | – | 89 °C | -7.44 | – | – | – | –
COc1ccc(Cc2cnc(N)nc2N)cc1OC | – | 233 °C | – | – | – | – | –

Structure (SMILES) | boiling point | melting point | log10 vapour pressure (mmHg) | ready biodegradability | log10 Henry constant (atm·m³/mol) | log10 Koc (L/kg) | log10 biodegradation half-life (days)
CC(Cl)(CCl)CCl | 162 °C | – | – | – | – | – | –
O=C(Nc1ccccc1)c1cc(Cl)ccc1O | – | 211 °C | – | – | – | – | –
Clc1nc(Cl)nc(Nc2ccccc2Cl)n1 | – | 160 °C | -8.21 | – | – | 3 | –
CC(C)(O)Cc1ccccc1 | 215 °C | 24 °C | – | – | – | – | –
CC(=O)N(C)C | – | – | – | readily biodegradable | – | – | –
CCC(C)(C)N | 77 °C | -105 °C | – | – | – | – | –
C=CCC(=O)O | 169 °C | -35 °C | – | – | – | – | –
Nc1ncnc2c1ncn2[C@@H]1O[C@H](CO)[C@@H](OP(=O)(O)O)[C@H]1O | – | 197 °C | – | – | – | – | –
O=C(OC1CCCCC1)c1ccccc1 | 285 °C | – | – | – | – | – | –
Cc1ccc(/C(=C\CN2CCCC2)c2ccccn2)cc1 | – | 60 °C | – | – | – | – | –
CCCCCCCCCCCCCCCC | 287 °C | 18.1 °C | -2.84 | not readily biodegradable | – | – | 1.23
COCBr | 87 °C | – | – | – | – | – | –
CS(C)(=O)=O | 238 °C | 109 °C | – | – | – | – | –
NC(=O)c1ccccc1 | 290 °C | 129 °C | – | – | -9.61 | 1.46 | –
CC1CCC(C)(C(=O)O)C1(C)C (stereo not drawn) | 254 °C | 106 °C | – | – | – | – | –
C=C(CC)CCC | 94 °C | – | – | – | – | – | –
Cc1cccc(N(C)C)c1 | 212 °C | – | – | – | – | – | –
CCC1(CC)COC(=O)NC1=O | – | 97.5 °C | – | – | – | – | –

Same assay, conditions: fish

Structure (SMILES) | log10 BCF | log10 biotransformation half-life (days)
O=[N+]([O-])c1cc(Cl)cc(Cl)c1O | 1.32 | –
COP(=S)(OC)Oc1ccc([N+](=O)[O-])c(C)c1 | 1.95 | 0.03
c1ccc2c(c1)[nH]c1ccccc12 | 2.23 | 0.06
CCNc1nc(Cl)nc(NC(C)C)n1 | 0.9 | -1.05
Clc1cc(Cl)c(-c2c(Cl)c(Cl)cc(Cl)c2Cl)c(Cl)c1Cl | – | 2.46
C=C(CCCC)CCCCCCCC | – | 0.88
BrC(Br)C(Br)Br | 0.74 | –
COc1c(Cl)cc(Cl)cc1Cl | 2.86 | –
Oc1cc(Cl)cc(Cl)c1 | 1.91 | -0.91
c1ccc2c(c1)ccc1cc3c(ccc4ccccc43)cc12 | – | 0.21
CCCCCCCCCCCCCCCC | 3.7 | –
CC1CCC(C(=O)O)C(C(=O)O)C1 (stereo not drawn) | 0.38 | –
